In patent publication US20120015886A1, “METHOD FOR PREPARING RECOMBINANT PEPTIDE FROM SPIDER VENOM AND METHOD FOR RELIEVING PAIN” (priority 2005, published 2012):
Where no end group is shown, it is not given here.

Tests used:
carrageenan-treated mice [1] = experiment: von Frey test, mechanical allodynia heightened by carrageenan; format: in vivo
Description: Mechanical stimuli were applied in an area in the paw between the thumb and index finger.

carrageenan-treated mice [2] = experiment: Weight-bearing test; format: in vivo
Procedure: In order to monitor behavioral changes brought by complex mechanical stimuli, the present inventors conducted the weight-bearing test, in which complex mechanical pain is assessed as the stimulus is varied. In detail, one the hind limbs of a mouse was injected with pain inducers such as carrageenan and formalin to incur pain. In such a case, the mouse puts less weight in the injected hind limb, but puts more weight than usual in the other, normal hind limb and this difference in weight is recorded as a measure of pain.
More specifically, the principles behind this test are as follows. When a mouse receives an injection of pain inducers in only one of the hind paws, it puts more weight than usual in the other hind paw. This difference in the weight balance serves as a measure of the mouse's pain. In the present example, such weight difference per unit body weight of the mouse was reported for comparison.
Two groups of 8 mice each received an intraplantar injection of either 2% carrageenan (50 μL) or for the negative control group, physiological saline solution (100 μL) at only one of their hind paws. To the carrageenan-treated mice, either GsMTx4 (40 μg/150 g body weight) or for the positive control group, morphine (10 mg/150 g) was intraperitoneally and their weight balances were monitored 1 to 6 hours later.

carrageenan-treated mice [3] = experiment: Randall-Selitto test, mechanical hyperalgesia heightened by carrageenan; format: in vivo
Procedure: In order to probe mechanical hyperalgesia in mice, the present inventors conducted the Randall-Selitto test, in which severe mechanical stress is applied to inflict pain. In detail, force is applied to a sharp-ended rod in touch with a hind paw of a mouse. As a measure of pain sensitivity, the weight of the rod at the pain threshold is recorded.
(§1) A cone-shaped rod was placed at one of the hind paws of mice treated with GsMTx4 and force was applied. […] A pain response was characterized as either raising the hind paw, rolling up the tail, or making a shrill sound.
(§2) Two groups of 8 mice each were injected with either physiological saline solution or the pain inducer carrageenan (2% solution, 50 μL, intraplantar) at their hind paws. After the first injection, either GsMTx4 (40 μg/150 g body weight) or for the positive control group, morphine (1.5 mg/150 g) was intraperitoneally injected to these mice. The Randall-Selitto test was carried out 4 hours later. Mechanical stimuli were applied in an area in the paw between the thumb and index finger. Threshold weight data were represented as percentage values against the threshold weight for mice treated saline solution (negative control).

cell swelling = details: Sachs et al., J. Gen. Physiol. 2000; cited from earlier work
[4] = test system: stretch-activated channels (SACs); details: administered to the hearts of rabbits after atrial fibrillation was induced with high level stress; cited from earlier work
[5] = test system: mice that did not receive carrageenan; experiment: von Frey test, mechanical low-pressure stimuli, no pain inducer; format: in vivo; details: mice without carrageenan; compared to intraplantar saline and intraperitoneal morphine groups
Procedure: The present inventors conducted the von Frey test in order to see whether GsMTx4 of this invention has an analgesic effect against rubbing or other weak mechanical stimuli inside a living body. When a pain inducer is administered only to one of the hind paws of a mouse, the affected paw becomes sensitive and feels pain from even small mechanical stimuli. The von Frey test involves measuring the weight difference at the pain threshold between the two hind paws as one varies the width of the von Frey hair involved in giving the stimuli (http://www.2biol.com/2biol analgesia.htm; Pitcher, G. M. et al., Journal of Neuroscience Methods 87(2):185˜193, 1999).
Two groups of 8 mice each received a 50-μL intraplantar injection of either physiological saline solution or 2% carrageenan at only one of their hind paws. After the first injection, either GsMTx4 (40 μg/150 g body weight) or for the positive control group, morphine (10 mg/150 g) was intraperitoneally injected to these mice. These mice were rubbed with von Frey hairs a half to 4 hours later.
Mechanical stimuli were applied in an area in the paw between the thumb and index finger. Threshold weight data were represented as percentages against the threshold weight for mice treated saline solution (negative control).

[6] = test system: mice that did not receive carrageenan; experiment: Randall-Selitto test, mechanical high-pressure stimuli, no pain inducer; format: in vivo; details: mice without carrageenan; compared to intraplantar saline and intraperitoneal morphine groups
Procedure: as §1, §2

mice = experiment: Tail flick test, temperature stimuli; format: in vivo; details: no pain inducer; GsMTx4 40 μg/150 g intraperitoneal; compared to morphine 10 mg/150 g; 30 to 4 hours later
Description: The present inventors looked into GsMTx4 for its possible analgesic activity on pain from temperature stimuli. Mice were irradiated with infrared in their tails and monitored for their endurance against heat (tail flick test). The analgesic effect of GsMTx4 was examined by comparing data from a group of mice suffering from induced pain with those from a non-induced group (Pitcher G. M. et al., Journal of Neuroscience Methods, 87(2):185˜193, 1999).
Three groups of 8 mice each respectively received an intraperitoneal injection of either physiological saline solution (100 μL) as the negative control, or morphine (10 mg/150 g body weight) as the positive control, or GsMTx4 (40 μg/150 g). They were then subject to the tail flick test 30 to 4 hours later.

[7] = test system: mice with neuropathic pains; experiment: von Frey test under a neuropathic pain model; format: in vivo; details: tibial and sural nerves cut; 50 μg/200 g body weight; 4 hours after injection; versus saline control
Description: Neuropathic pain was induced to mice according to the method reported by Lee and others (Lee, B. et al., Neuroreport 11:657˜661, 2000). Mice were put under anesthesia and their skin was excised in the thighs to expose the tibial, sural and common peroneal nerves. Out of these, the tibial and sural nerves were bound together and cut off. Mice were then allowed to recuperate for 6 days after the operation and the monitoring for the presence of neuropathic pain began 1 week after the operation. The analgesic effect of GsMTx4 on those mice suffering from neuropathic pain was tested by the von Frey test as in Example 9.
Mice with neuropathic pains were divided into two groups of 9. To the first group, GsMTx (50 μg/200 g body weight) was injected and to the second group, physiological saline solution for control. 4 hours after the injection of GsMTx4, mechanical stimuli were applied to these mice with von Frey filaments. The width of the von Frey filament that evoked a nociceptic (flexor) reflex was recorded before and after the surgery, and the data was expressed as the percentage of the latter width in relation to the former.

[8] = carrageenan-treated mice, GsMTx4 40 μg/150 g intraperitoneal

Row | Molecule | hypersensitivity (pain threshold for hair force) (carrageenan-treated mice [1]; mouse, in vivo, ip) | weight difference between hind limbs (carrageenan-treated mice [2]; mouse, in vivo, ip) | pain sensitivity threshold (carrageenan-treated mice [3]; mouse, in vivo, ip) | effect on cell swelling associated with congestive heart failure (cell swelling) | effect on atrial fibrillation [4] | hypersensitivity (pain threshold for hair force) (carrageenan-treated mice [1]; 2% carrageenan 50 μL intraplantar, intraperitoneal GsMTx4 40 μg/150 g or morphine 10 mg/150 g, a half to 4 hours later) | weight difference between hind limbs (carrageenan-treated mice [2]; 2% carrageenan 50 μL intraplantar, GsMTx4 40 μg/150 g or morphine 10 mg/150 g intraperitoneally, 1 to 6 hours later) | pain sensitivity threshold (carrageenan-treated mice [3]; 2% carrageenan 50 μL intraplantar, intraperitoneal GsMTx4 40 μg/150 g body weight or morphine 1.5 mg/150 g) | time after injection at which the analgesic effect occurred (carrageenan-treated mice [3]; [8]) | time the analgesic effect lasted (carrageenan-treated mice [3]; [8]) | analgesic effect against mechanical low pressure [5] | analgesic effect against mechanical high pressure [6] | analgesic activity against temperature stimuli (mice) | reflex threshold against mechanical stimuli (von Frey filaments) [7]
1 | CN1CC[C@]23c4c5ccc(O)c4O[C@H]2[C@@H](O)C=C[C@H]3[C@H]1C5 [morphine, reference compound] | reduce hypersensitivity | reverted back to a low value | increased back substantially | – | – | – | – | – | – | – | – | – | – | –
2 | GsMTx4: Spider toxin peptide of 34 amino acids (SEQ. ID NO 1), 3 disulfide bonds, mechanosensitive ion channel inhibitor; produced recombinantly in Pichia pastoris (GCLEFWWKCNPNDDKCCRPKLKCSKLFKLCNFSF; disulfide (positions not given here); not fully specified (bridges); ends not checked; listed as Grammostola spatulata) | – | – | – | prevent cell swelling | relieve symptoms of atrial fibrillation | reduce hypersensitivity | reverted back to a low value | increased back substantially | 30 min | approximately 4 hours | observed, albeit weakly | evident | either negligible or no analgesic activity | elevation of the reflex threshold
